Experimental data published in patent publication US6677310B1, “Ring-expanded nucleosides and nucleotides” (Nabi, priority 1999, dated 2004).
Converted amounts (≈) assume the structure as drawn. “Also recorded” adds a separate entry of the source.

Experiments:
[1] = test system: P3HR-1 strain of EBV; assay: Viral capsid antigen (VCA) / EBV immunofluorescence assay in Daudi cells; assay type: cell-based, Epstein-Barr virus; details: for SI (Selectivity Index), Daudi Cells: IC50 (Daudi cells) divided by anti-EBV EC50; for SI (Selectivity Index), Neutral Red Uptake: IC50 (neutral red, stationary HFF) divided by anti-EBV EC50; for SI (Selectivity Index), HFF Cells: IC50 (rapidly growing HFF) divided by anti-EBV EC50; for EC50: human gammaherpesvirus 4, Daudi cells, read-out: Antiviral Activity (EC50), anti-EBV
Method: After virus adsorption, the cells were washed and pelleted, and the supernatant was discarded. The drugs to be tested were serially diluted in RPMI-1640 and added to the appropriate tubes. The cultures were incubated for 2 days in complete medium to allow viral gene expression. Following the 48 h incubation period, a number of cells of each sample were counted and washed in phosphate-buffered saline (PBS), and slides were prepared. The slides were dried overnight. The dried cells were fixed with acetone. A monoclonal antibody to viral capsid antigen (VCA) was then added to the cells, incubated for 30 min at 37° C., and washed in PBS. This was followed by a fluorescein-conjugated goat anti-mouse IgG antibody. The cells were counterstained with. Evans Blue. A total of 500 negative and fluorescence positive cells were counted. The total number of VCA positive cells in the cultures was calculated and EC50 values determined using Microsoft Excel Software.
(§1) Data Analysis: Dose-response relationships were constructed by linearly regressing the percent inhibition of parameters derived in the preceding sections against log drug concentrations. Fifty-percent inhibitory (IC50) concentrations were calculated from the regression lines.

[2] = Cell proliferation assay, rapidly growing HFF cells; assay type: cell-based; details: human, rapidly growing human foreskin fibroblast (HFF) cells; for IC50 at 72 h: rapidly growing HFF cells, read-out: Cytotoxicity (IC50), HFF Cells
Method: (§2) The toxicity of Compounds 14-1 and 14-2 was also measured in rapidly growing human foreskin fibroblast (HFF) cells and Daudi cells by cell proliferation assay (National Institute of Allergy and Infectious Diseases (NIAID), NIH, Bethesda, Md.). According to the assay method, the appropriate cells were seeded in six-well plates in MEM containing 10% FBS. Twenty four hours later, the cells were treated with several dilutions of the test compounds covering a range of 0.03-100 μg/ml. The plates were incubated in a CO2 incubator at 37° C. for 72h. The cells were washed after removing the media and subsequently released from the plate wells by the addition of 1 ml of 0.25% trypsin. The contents in the wells were mixed, diluted with Isotone III and counted using a Coulter counter. The CC50 values (concentration of compound giving 50% inhibition of cell proliferation) were calculated by linear regression analysis. Toxicity of Compound 14-1 was also evaluated in bone marrow precursor cells by previously published procedure (Sommadossi, J.-P., et al., Biochem. Pharmacol., 44:1921-1925, 1992).
(§3) (A) Cell Proliferation Assay: Twenty-four hours prior to assay, cells (HFF or Daudi) were seeded in six-well plates at a concentration of 2.5×10^4 cells per well in MEM containing 10% FBS. On the day of the assay, drugs were diluted serially in MEM containing 10% FBS at increments of 1:5 covering a range from […]. For drugs that had to be solubilized in DMSO, control wells receive MEM containing 10% DMSO. The media from the wells was then aspirated, and 2 mL of each drug concentration was added to each well. The cells were incubated in a CO2 incubator at 37° C. for 72 h. At the end of this time, the media-drug solution was removed, and the cells were washed. Trypsin-EDTA (0.25%, 1 mL) was added to each well and incubated until the cells started to come off the plate. The cell-media mixture was then pipeted up and down vigorously to break up the cell suspension and 0.2 mL of the mixture added to 9.8 mL of Isoton III and the cells were counted using a Coulter Counter. Each sample was counted three times with two replicate wells per sample. The IC50 values were calculated using a computer program.

[3] = Neutral red uptake assay, stationary HFF cells; assay type: cell-based; details: human, read-out: Cytotoxicity (IC50), Neutral Red Uptake
Method: (B) Neutral Red Uptake Assay: Twenty-four hours prior to assay, HFF cells were plated into 96-well plates at a concentration of 2.5×10^4 cells/well. After 24 h, the media was aspirated, and […] of media containing drug was added to the first row of wells and then diluted serially 1:5 using the automated Cetus Liquid Handling System. The plates were then incubated in a Co2 incubator at 37° C. for 7 days. At this time the media/drug was removed, cells were washed, 200 μL/well of 0.01% neutral red in PBS was added, and the mixture was incubated for 1 h. The dye was removed, and the cells were washed using a Nunc Plate Washer. After the wash was removed, […] of 50% ethanol/1% aqueous acetic acid was added. The plates were placed on a rotating shaker for 15 min, and the optical densities were then read at 540 nm using a plate reader.
as §1

[4] = Cell proliferation assay, rapidly growing Daudi cells; assay type: cell-based; details: human; for IC50 at 72 h: rapidly growing Daudi cells, read-out: Cytotoxicity (IC50), Daudi Cells
Method: as §2, §3

[5] = target: T1, guanine deaminase (guanase) from rabbit liver (Oryctolagus cuniculus, UniProt G1T386); assay: Guanine deaminase assay (Example 17); assay type: biochemical; details: Lineweaver-Burk plots
T1 construct: from tissue; host or cells: rabbit liver
T1 sequence (G1T386 1-454): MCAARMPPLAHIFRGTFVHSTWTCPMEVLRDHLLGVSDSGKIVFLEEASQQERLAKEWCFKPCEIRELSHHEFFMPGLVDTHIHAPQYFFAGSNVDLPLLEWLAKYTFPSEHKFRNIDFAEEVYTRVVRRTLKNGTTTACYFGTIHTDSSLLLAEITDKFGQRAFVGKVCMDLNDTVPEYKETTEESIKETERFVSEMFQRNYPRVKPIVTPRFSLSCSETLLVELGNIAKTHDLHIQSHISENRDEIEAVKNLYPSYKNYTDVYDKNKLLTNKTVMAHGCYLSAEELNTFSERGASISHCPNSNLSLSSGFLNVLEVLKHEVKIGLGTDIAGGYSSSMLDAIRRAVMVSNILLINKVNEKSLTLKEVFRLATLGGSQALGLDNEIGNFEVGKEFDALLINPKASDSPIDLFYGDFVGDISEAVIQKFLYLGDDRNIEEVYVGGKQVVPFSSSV
Method: Stock solutions of the substrate, enzyme, and inhibitors were prepared using a 50 mM Tris-HCl buffer (pH 7.4). The enzyme kinetics was followed by measuring the change in optical density (decrease in absorbance) per minute of the substrate guanine. By keeping the concentration of the inhibitor constant, and by varying the substrate concentration, a set of kinetic data was obtained. Additional sets of data were generated using different concentrations of the inhibitor. The substrate concentration in each assay ranged 6-20 μM; a total of six different concentrations were employed. The inhibitor concentration used in each assay was 30 or 40 μM. The amount of enzyme used in each assay was 0.0076 unit. The Ki for inhibition assays was computed from Lineweaver-Burk plots. The Lineweaver-Burk plot (1/V vs 1/[S]), as well as the linear regression analysis of kinetic data, were performed using the program Quattro Pro (version 6.01) for Windows.™.

[6] = target: T2, adenosine deaminase from calf intestinal mucosa (Bos taurus, UniProt P56658); assay: Adenosine deaminase assay (Example 17); assay type: biochemical; details: Lineweaver-Burk plots; with and without preincubation
T2 construct: against adenosine deaminase from calf intestinal mucosa; from tissue; host or cells: calf intestinal mucosa
T2 sequence (P56658 whole entry): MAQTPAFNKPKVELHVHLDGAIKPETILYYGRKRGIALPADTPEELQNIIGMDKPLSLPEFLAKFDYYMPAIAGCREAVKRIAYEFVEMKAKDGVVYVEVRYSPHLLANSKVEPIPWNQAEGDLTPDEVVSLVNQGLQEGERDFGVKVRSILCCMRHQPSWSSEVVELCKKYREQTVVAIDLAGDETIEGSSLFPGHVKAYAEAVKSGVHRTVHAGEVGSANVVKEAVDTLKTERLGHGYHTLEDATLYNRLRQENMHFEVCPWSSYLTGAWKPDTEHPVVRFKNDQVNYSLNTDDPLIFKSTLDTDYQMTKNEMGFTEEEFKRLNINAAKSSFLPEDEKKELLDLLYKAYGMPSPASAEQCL
Method: Inhibition of adenosine deaminase (ADA) by Compound 17-1 and Compound 17-2 (see FIG. 13 for chemical structures; note that structure 1 FIG. 13 is the same as that in figure except that it is written in an anti-conformation in the former) was investigated in vitro against adenosine deaminase from calf intestinal mucosa in a 50 mM phosphate buffer (pH=7.4) at 25° C., by spectro-photometrically monitoring the rate of hydrolysis of substrate adenosine at 265 nm. Stock solutions of the substrate, enzyme, and inhibitors were prepared using a 50 mM phosphate buffer (pH 7.4). The enzyme kinetics was followed by measuring the change in optical density (decrease in absorbance) per minute of the substrate adenosine. By keeping the concentration of the inhibitor constant, and by varying the substrate concentration, a set of kinetic data was obtained. Additional sets of data were generated using different concentrations of the inhibitor. […]
(a) pre-incubation of the enzyme with the inhibitor; here the enzyme (ADA 10 μL) and inhibitor were preincubated for 10 min in a calculated amount of phosphate buffer (50 mM, pH 7.5 ) at 25° C. and the reaction was initiated by the addition of substrate, adenosine, and (b) without preincubation; here the reaction was started by addition of ADA (10 μL) to a mixture of adenosine and inhibitor in the phosphate buffer at 25° C. […]

EC50 [1] [µg/mL] | inhibition of guanine deaminase (guanase), mode [5] | melting point [°C] | SMILES | SI (Selectivity Index), Daudi Cells [1] | SI (Selectivity Index), Neutral Red Uptake [1] | SI (Selectivity Index), HFF Cells [1] | CC50 at 72 h ([2]; Rapidly growing HFF cells) [µg/mL] | IC50 at 72 h [2] [µg/mL] | IC50 at 7 days [3] [µg/mL] | CC50 at 72 h ([4]; Rapidly growing Daudi cells) [µg/mL] | IC50 at 72 h [4] [µg/mL] | mode of inhibition of adenosine deaminase [6]
0.8 (≈ 3.55 µM) |  |  | Nc1nc2c(ncn2COCCO)c(=O)[nH]1 [Aciclovir, reference compound] | >62 | >125 | >125 | > 100 | > 100 | > 100 | > 50 | > 50 | 
 | competitive inhibitor |  | N=c1nc(N)c2ncn(COCCO)c2c(N)n1 [Compound 17-2] |  |  |  |  |  |  |  |  | competitive inhibitor; also recorded: reversible inhibitor
4.1 (≈ 9.39 µM) |  | 170 to 172 | O=C1c2ncn(Cc3ccccc3)c2N(Cc2ccccc2)C(=O)CN1Cc1ccccc1 [Compound 18-1, 3,4,7-Tribenzyl-4,5,7,8-tetrahydro-6H-imidazo[4,5-e][1,4]diazepine-5,8-dione] | >12 | >24 | >24 |  | > 100 | > 100 |  | > 50 | 
8.3 (≈ 19.5 µM) |  | 239 to 241 | O=C1NCC(=O)N(Cc2ccccc2)c2c1nc(Br)n2Cc1ccccc1 [Compound 18-2, 3,4-Dibenzyl-2-bromo-4,5,7,8-tetrahydro-6H-imidazo[4,5-e][1,4]diazepine-5,8-dione] | >6 | >12 | >12 |  | > 100 | > 100 |  | > 50 | 
